From patent US8663646B2, “P53 peptide vaccine” (priority 2007, dated 2014)
Where two headings read alike, the source gives them in different places.

Experiments:
proteasome = assay: Proteasome processing, summarised over proteasome types (Table 5); assay type: biochemical; conditions: 30 residue long precursor peptides
Procedure: In the context of the invention, “being inefficiently processed by a proteasome” preferably means that within the first hour of digestion by a proteasome less than 1% of total digested peptide is found. The processing by a proteasome is preferably assessed by incubating a purified proteasome, more preferably a human proteasome with a peptide comprising the potential CTL epitope (30 amino acid length approximately) in a proteasome digestion buffer during at least one hour at 37° C. The reaction is subsequently stopped by adding trifluoroacetic acid. Analysis of the digested peptides is performed with electrospray ionization mass spectrometry (see example 1). Even more preferably, the human proteasome is an immunoproteasome from B-LCL JY cells (Kessler J H et al. 2001).
20S immuno-proteasomes were purified from a mouse B-cell line (RMA) and a human B-LCL cell line (JY) and 20S household proteasomes were purified from human tumor cell line (HeLa) as described (Kessler J H et al 2001). To assess kinetics, digestions were performed with different incubation periods as indicated. Briefly, peptides containing the (potential) CTL epitopes (30 mers, 20 μg) were incubated with 1 μg of purified proteasome at 37° C. for 1 h, 4 h and 24 h in 300 μl proteasome digestion buffer, trifluoroacetic acid (30 μl) was added to stop the digestion and samples were stored at −20° C. before mass spectrometric analysis. Electrospray ionization mass spectrometry was performed on a hybrid quadrupole time-of-flight mass spectromter, a Q-TOF (Micromass), equipped with an on-line nanoelectrospray interface with an approximate flow rate of […] as described (Kessler J H et al 2001). The peaks in the mass spectrum were searched in the digested precursor peptide using the Biolynx/proteins software (Micromass) supplied with the mass spectrometer. The intensity of the peaks in the mass spectra was used to establish the relative amounts of peptides generated after proteasome digestion. The relative amounts of the peptides are given as a percentage of the total amount of peptide digested by the proteasome at the indicated incubation time. Major cleavage sites are defined as more than >1% of total digested peptide within the first hour.

HLA-A*0201 [1] = biological target: T1, HLA-A*0201 (Homo sapiens, UniProt P04439, D140Y/D185E/D98H/E176V/E277Q/G131W/G231S/I119V/I121R/I166T/I218V/L300P/L318F/N151K/N90K/P208A/P217A/Q86G/Q94H/R138H/R169H/T345S); assay: Peptide stabilization for HLA-A*0201; assay type: binding; conditions: HLA-A*0201; p53 peptides
HLA-A*0201 [2] = biological target: T1, HLA-A*0201; conditions: binding capacity previously determined, cited from earlier work
[3] = biological target: T2, 20S immuno-proteasomes from mouse B-cell line (RMA) (Mus musculus, UniProt O35955+P28063+P28076); assay: In vitro proteasome mediated digestion of 30-mers, mass spectrometry, immunoproteasome RMA; assay type: biochemical; conditions: 30 residue long precursor peptides
T2 construct: 20S immuno-proteasomes were purified from a mouse B-cell line (RMA); endogenous in cells; host or cells: RMA cells; 20S proteasome purified from them
Outline: (§1)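 30-mer peptides (20 μg) digested with 1 μg purified 20S proteasome (JY or RMA immunoproteasome, HeLa household proteasome) at 37° C for 1, 4 and 24 h, stopped with TFA. Nano-ESI Q-TOF MS; fragments quantified by peak intensity as percent of total digested peptide per time point; major cleavage site >1% within first hour.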

[4] = biological target: T3, 20S immuno-proteasomes from human B-LCL cell line (JY) (Homo sapiens, UniProt P28062+P28065+P40306); assay: In vitro proteasome mediated digestion of 30-mers, mass spectrometry, immunoproteasome JY; assay type: biochemical; conditions: 30 residue long precursor peptides
T3 construct: purified from a mouse B-cell line (RMA) and a human B-LCL cell line (JY); endogenous in cells; host or cells: B-LCL JY cells; 20S proteasome purified from them
Outline: as §1

[5] = biological target: T4, 20S household proteasomes from human tumor cell line (HeLa) (Homo sapiens, UniProt P28072+P28074+Q99436); assay: In vitro proteasome mediated digestion of 30-mers, mass spectrometry, household proteasome HeLa; assay type: biochemical; conditions: 30 residue long precursor peptides
T4 construct: 20S household proteasomes were purified from human tumor cell line (HeLa); endogenous in cells; host or cells: HeLa cells; 20S proteasome purified from them
Outline: as §1

[6] = biological target: T3, 20S immuno-proteasomes from human B-LCL cell line (JY); conditions: PRAME peptides (Kessler J H et al 2001); cited from earlier work

## CSCC[C@H](NC(=O)[C@@H](N)CCCNC(=N)N)C(=O)N1CCC[C@H]1C(=O)N[C@@H](CCC(=O)O)C(=O)N[C@@H](C)C(=O)N[C@@H](C)C(=O)N1CCC[C@H]1C(=O)N1CCC[C@H]1C(=O)N[C@H](C(=O)O)C(C)C [p53 65-73]
proteasome
  generation / processing by household and immunoproteasomes, in words: not/inefficiently processed
HLA-A*0201 [1]
  Peptide Binding Stability: 6 h
HLA-A*0201 [2]
  Peptide Binding Affinity: high

## CC(C)C[C@H](NC(=O)[C@@H](NC(=O)[C@H](Cc1ccccc1)NC(=O)[C@H](Cc1ccc(O)cc1)NC(=O)[C@H](CCC(=O)O)NC(=O)CNC(=O)[C@H](CC(=O)O)NC(=O)[C@H](CC(C)C)NC(=O)[C@@H]1CCCN1)[C@@H](C)O)C(=O)O [p53 322-330]
[3]
  Proteasomal Cleavage of C-terminus, IP (RMA): + (Major cleavage sites are defined as more than >1% of total digested peptide within the first hour)
[4]
  Proteasomal Cleavage of C-terminus, IP (JY): + (Major cleavage sites are defined as more than >1% of total digested peptide within the first hour)
HLA-A*0201 [2]; read-out: Peptide Binding Affinity
  IC50: 5 to 15 µM
[5]
  Proteasomal Cleavage of C-terminus, HH (HeLa): + (Major cleavage sites are defined as more than >1% of total digested peptide within the first hour)

## VLDGLDVLL [PRA 100-108]
[6]
  Proteasomal Cleavage of C-terminus, IP (JY): + (Major cleavage sites are defined as more than >1% of total digested peptide within the first hour)
